# In patent US20220331286A1, “CANNABIS LIMITS CANCER STEM CELL GROWTH IN POORLY DIFF[…]” (The Regents of the University of California, priority 2021, published 2022):
# Entries after “also recorded” stand apart in the source; their conditions may differ.
# Columns and labels:
# [1] = system: tumor; experiment: Cytostatic effect: tumor-cell coverage of the well-plate (FIG. 2); type: cell-based; details: at higher concentrations (FIG. 2)
# Excerpt: In FIG. 2, the cystostatic effect of WIN 55,212-2 are shown.
# [2] = system: mouse models of breast cancer, non-small cell lung cancer, and non-melanoma skin cancer; details: cited from earlier work
# [3] = system: Oral squamous carcinoma cells (OSCCs); experiment: Microscopy of cell morphology and viability; type: cell-based, human
# [4] = system: PL-12 well-differentiated pancreatic tumor cells; details: WIN 55,212-2, 48 h; mesylate
# [5] = system: MIA PaCa-2 (MP2) poorly differentiated/stem like pancreatic tumor cells; experiment: Microscopy of cell morphology and viability; type: cell-based, human; details: different concentrations of WIN 55,212-2; CDDP 50 μg/mL; 24 hours
# [6] = system: PL-12 well-differentiated pancreatic tumor cells; experiment: Microscopy of cell morphology and viability; type: cell-based, human; details: different concentrations of WIN 55,212-2; CDDP 50 μg/mL; 24 hours
# [7] = system: Oral squamous carcinoma cells (OSCCs)
# [8] = system: oral squamous carcinoma stem cells (OSCSCs); experiment: Cell death by propidium iodide staining and flow cytometry; type: cell-based, human
# Procedure: (§1) After an overnight incubation the cells were washed twice and stained with propidium iodide (PI) at a concentration of 3 μg/ml. Flow cytometric analysis was performed using Attune flow cytometer results were analyzed using FlowJo vX software (Ashland, Oreg.).
# [9] = system: Oral squamous carcinoma cells (OSCCs); experiment: as above; type: cell-based, human; details: 24 hours
# Procedure: as §1
# [10] = system: oral squamous carcinoma stem cells (OSCSCs)
# [11] = system: oral squamous carcinoma stem cells (OSCSCs); experiment: Viable cell count (Trypan Blue) after treatment; type: cell-based, human; details: WIN 55,212-2 10, 25, 50, 100 μM, CDDP 50 μg/ml, 24 hours
# Procedure: (§2) Oral squamous carcinoma cells (OSCCs) and oral squamous carcinoma stem cells (OSCSCs) were isolated from cancer patients with tongue tumors at UCLA. The cells were cultured in RPMI 1640 complete medium with 10% fetal bovine serum (FBS) 1.4% Antibiotic-Antimycotic, 1% sodium pyruvate, 1.4% non-essential amino acids, 1% L-glutamine, 0.2% gentamicin (Gemini Bio-Products, CA, USA), and 0.15% sodium bicarbonate (Fisher Scientific, PA, USA).
# (§3) As shown in FIG. 1A-1E, OSCSCs are affected more by WIN 55,212-2 than OSCCs. Both OSCCs (oral squamous carcinoma cells) and OSCSCs (oral squamous carcinoma stem cells) were treated with various concentrations of WIN 55,212-2 (10, 25, 50, and 100 μM) and CDDP (50 μg/ml), and the cell numbers were determined after 24 hours of treatment.
# (§4) RPMI 1640 (Gibco, Thermo Fisher Scientific, USA) complete medium with 10% fetal bovine serum (FBS) (Gemini Bio-Products, San Diego, Calif., USA), 1.4% of non-essential amino acid (Gibco, Thermo Fisher Scientific, USA), 1.4% sodium pyruvate (Gibco, Thermo Fisher Scientific, USA), 0,15% of sodium bicarbonate (Fisher Scientific, Waltham, Mass., USA) and 1% antibiotics/antimycotics (Gemini Bio-Products, San Diego, Calif., USA) was used for oral tumor culture. DMEM (Gibco, Thermo Fisher Scientific, USA) supplemented with 10% FBS and 1% antibiotics/antimycotics was used for pancreatic tumor cell culture. Oral squamous carcinoma cells (OSCCs) and oral squamous carcinoma stem cells (OSCSCs) were isolated from cancer patients with tongue tumor at UCLA. Human pancreatic cancer cell lines MIA PaCa-2 (MP2) and PL-12 were generously provided by Dr. Guido Eibl (UCLA David Geffen School of Medicine) and by Dr. Nicholas Cacalano (UCLA Jonsson Comprehensive Cancer Center), respectively. […] CDDP was purchased from Ronald Reagan UCLA Medical Center Pharmacy. […] TNF-α and IFN-γ were purchased from Peprotech (Rockyhill, N.J.).
# (§5) The number of viable cells was counted under light microscope using Trypan Blue staining (Sigma, Mo., USA).
# [12] = system: Oral squamous carcinoma cells (OSCCs); experiment: Viable cell count (Trypan Blue) after treatment; type: cell-based, human; details: for killing / decrease in cell numbers of OSCCs, in words: WIN 55,212-2 10, 25, 50, 100 μM, CDDP 50 μg/ml
# Procedure: as §2, §3, §4, §5
# [13] = system: breast cancer cell lines; details: not normal breast epithelium; cited from earlier work
# [14] = system: oral squamous carcinoma stem cells (OSCSCs); experiment: Microscopy of cell morphology and viability; type: cell-based, human; details: WIN 55,212-2 even at the lowest concentrations; CDDP 50 μg/mL; 24 h
# [15] = system: MIA PaCa-2 (MP2) poorly differentiated/stem like pancreatic tumor cells; experiment: Cell death by propidium iodide staining and flow cytometry; type: cell-based, human
# Excerpt: (§6) Propidium iodide (PI) staining was used to determine the cell death by flow cytometry.
# [16] = system: PL-12 well-differentiated pancreatic tumor cells; experiment: as above; type: cell-based, human
# Excerpt: as §6
# [17] = system: MIA PaCa-2 (MP2) poorly differentiated/stem like pancreatic tumor cells; experiment: Viable cell count (Trypan Blue) after treatment; type: cell-based, human
# Excerpt: (§7) Six different pancreatic tumor cell lines each characterized at poorly, intermediate and well differentiated stages pathologically by other laboratories previously were used to determine phenotype, susceptibility to NK cell-mediated cytotoxicity and secretion of IFN-γ directly correlating with the differentiation stages of the tumors. […] Furthermore, the stage of differentiation of the tumors was correlated with sensitivity to NK cell mediated cytotoxicity in pancreatic tumor cells. […] Therefore, a direct correlation between augmented sensitivity to NK-mediated lysis and poor differentiation of pancreatic tumors was evident from these experiments. For the following experiments MP2 and PL12 were used as representative tumor types for poorly differentiated and well differentiated tumors respectively. Human pancreatic cancer cell line MIA PaCa-2 (MP2), was provided by Dr. Guido Eibl (UCLA David Geffen School of Medicine) and PL12 was provided by Dr. Nicholas Cacalano (UCLA Jonsson Comprehensive Cancer Center). MP2 tumors were cultured with DMEM in supplement with 10% FBS and 1% Penicillin-Streptomycin (Gemini Bio-Products, CA). PL12 pancreatic tumors were cultured in RMPI 1640 medium supplemented with 10% FBS and 1% penicillin-streptomycin.
# as §4, §5
# [18] = system: PL-12 well-differentiated pancreatic tumor cells; experiment: Viable cell count (Trypan Blue) after treatment; type: cell-based, human; details: for percent decrease in cell numbers of PL12, in words: various concentrations of WIN 55,212-2, CDDP 50 μg/ml
# Excerpt: as §7, §4, §5
# [19] = system: MIA PaCa-2 (MP2) poorly differentiated/stem like pancreatic tumor cells
# [20] = WIN 55,212-2 50 μM or higher, CDDP 50 μg/mL, 24 h
# [21] = WIN 55,212-2 (5-50 μM), 24 hours, vs untreated control, mesylate
# [22] = various concentrations of WIN 55,212-2, 24 hours and 48 hours (FIG. 4A-4B)
# [23] = WIN 55,212-2 (5-50 μM), 24 hours, mesylate
# [24] = WIN 55,212-2 25-100 μM, 24-48 hours
# [25] = different concentrations of WIN 55,212-2, dose-dependent, 24-48 hours
compound,measurement,setting,value
"CS(=O)(=O)O.Cc1c(C(=O)c2cccc3ccccc23)c2cccc3c2n1[C@H](CN1CCOCC1)CO3 [WIN 55,212-2, (R)-(+)-[2,3-Dihydro-5-methyl-3-(4-morpholinylmethyl)pyrrolo[1,2,3-de]-1,4-benzoxazin-6-yl]-1-naphthalenylmethanone mesylate]",cytostatic effect (fold change of the tumor-cell coverage of the well-plate),[1],arrests the tumor growth
same,"tumor burden, lung metastasis and tumor induced angiogenesis in vivo",[2],"reduce tumor burden, lung metastasis and tumor induced angiogenesis"
same,morphology/viability of OSCCs under the microscope,[3]; [20],some of the OSCCs still remained viable but some rounded up and detached and were not viable
same,morphology/viability of OSCCs under the microscope,"[3]; low concentrations of WIN 55,212-2, 24 h",remained viable
same,"CD44 cell surface expression, PL-12",[4],decreased expressions; also recorded: Decreased cell surface expression
same,"CD54 cell surface expression, PL-12",[4],decreased expressions; also recorded: decreased the expression
same,morphology/viability of MP2 under the microscope,[5],"largely lost their shape and morphology, and had detached from the plates"
same,morphology/viability of PL-12 under the microscope,[6],maintained their morphology and remained viable
same,"CD44 cell surface expression, OSCCs",[7]; [21],Decreased expression
same,"CD54 cell surface expression, OSCCs",[7]; [21],Decreased expression
same,"MHC class I cell surface expression, OSCCs",[7]; [21],Decreased expression
same,"PD-L1 (B7H1) cell surface expression, OSCCs",[7]; [21],Decreased expression
same,"MHC class I expression on the cell surface, OSCCs",[7]; [22],decreases in MHC class I expression
same,amounts of cell death in OSCSCs compared with those induced by CDDP,"[8]; WIN 55,212-2 25-100 μM, compiled data",either similar or higher when compared to those induced by CDDP
same,cell death in OSCSCs compared with OSCCs (PI staining),"[8]; all WIN 55,212-2 concentrations tested, 24 hours, mesylate",higher cell death
same,cell death in OSCCs (PI staining),"[9]; WIN 55,212-2 75 and 100 μM",up to 10%
same,"CD44 cell surface expression, OSCSCs",[10]; [23],decreased expressions
same,"CD54 cell surface expression, OSCSCs",[10]; [23],decreased expressions
same,"PD-L1 (B7H1) cell surface expression, OSCSCs",[10]; [23],decreased expressions
same,"MHC class I expression on the cell surface, OSCSCs",[10]; [22],decreases in MHC class I expression
same,"killing / decrease in cell numbers of OSCSCs, in words",[11]; mesylate,significantly killed; also recorded: significantly greater than OSCCs
same,"killing / decrease in cell numbers of OSCCs, in words","[12]; 24 hours, mesylate",much less; also recorded: smaller decrease in cell numbers
same,decrease in cell numbers of OSCC (viable cells),"[12]; WIN 55,212-2 10-100 μM, 24 hours",10-25%
same,effect on radiotherapy / anti-proliferative effects of radiation,[13],synergistically increased the effects of radiotherapy
same,morphology/attachment of OSCSCs under the microscope,[14],became detached from the culture plates
same,"percentages of dead cells, MP2 (PI staining)",[15]; [24],approximately 30%
same,increase in cell death in MP2s compared with PL12 (PI staining),"[15]; various concentrations of WIN 55,212-2, 48 hours",greater higher increase in cell death
same,"percentages of dead cells, PL-12 (PI staining)",[16]; [24],up to 20%
same,"decreased numbers of viable cells, MP2",[17]; [25],60-85%
same,"percent decrease in cell numbers of MP2s, in words","[17]; various concentrations of WIN 55,212-2",significantly greater than PL12s
same,"decreased numbers of viable cells, PL-12",[18]; [25],50-70%
same,"percent decrease in cell numbers of PL12, in words",[18],smaller decreases in cell numbers
same,"CD44 cell surface expression, MP2","[19]; WIN 55,212-2, 48 h, mesylate",decreased expressions; also recorded: Decreased cell surface expression
same,"CD54 cell surface expression, MP2","[19]; WIN 55,212-2, 48 h, mesylate",decreased expressions; also recorded: decreased the expression
same,"MHC class I cell surface expression, MP2","[19]; WIN 55,212-2, 48 h, mesylate",decreased expressions; also recorded: decreased on MP2
same,"PD-L1 (B7H1) cell surface expression, MP2","[19]; WIN 55,212-2, 48 h, mesylate",decreased expressions; also recorded: decreased in MP2
same,"extent of decrease in all surface receptor expressions, MP2 compared with PL-12","[19]; WIN 55,212-2 treatments (FIG. 17F)",significantly greater than those seen in PL-12 tumor cells
"CCCCCc1cc(O)c2c(c1)OC(C)(C)[C@@H]1CCC(C)=C[C@@H]21 [THC, Tetrahydrocannabinol]",effect on radiotherapy / anti-proliferative effects of radiation,[13],failed to enhance anti-proliferative effects of radiation
CCCCCCC(C)(C)c1cc(O)c2c(c1)OC(C)(C)C1CCC(=O)CC21 (centres unmarked) [nabilone],effect on radiotherapy / anti-proliferative effects of radiation,[13],failed to enhance anti-proliferative effects of radiation
"N.N.[Cl][Pt][Cl] [CDDP, cis-diaminedichloridoplatinum (II)]",morphology/viability of OSCCs under the microscope,[3]; [20],"loss of morphology, and the majority were detached from the plates"
same,morphology/viability of MP2 under the microscope,[5],affected both PL-12 and MP2 morphologically
same,morphology/viability of PL-12 under the microscope,[6],affected both PL-12 and MP2 morphologically
same,cell death in OSCCs compared with OSCSCs (PI staining),[9]; CDDP 50 μg/mL,significant cell death in OSCCs when compared to OSCSCs; also recorded: more cell death in OSCCs when compared to OSCSCs
same,"killing / decrease in cell numbers of OSCSCs, in words",[11],not killed
same,"inhibition of cell growth, OSCCs compared with OSCSCs","[12]; CDDP 50 μg/mL, 24 h",inhibit cell growth of OSCCs more than those seen with OSCSCs
same,"killing / decrease in cell numbers of OSCCs, in words",[12]; 24 hours,killed significantly; also recorded: greater decreases in cell numbers
same,morphology/attachment of OSCSCs under the microscope,[14],the majority of these cells were still attached to the cell culture plate
same,cell death in PL-12 compared with MP2 (PI staining),[16]; CDDP 50 μg/mL,higher in PL-12 in the representative experiment (FIG. 16B) and similar in compiled data
same,"percent decrease in cell numbers of PL12, in words",[18],greater decrease in cell numbers
"C=C(C)[C@@H]1CCC(C)=C[C@H]1c1c(O)cc(CCCCC)cc1O [CBD, Cannabidiol]",effect on radiotherapy / anti-proliferative effects of radiation,[13],failed to enhance anti-proliferative effects of radiation
